From patent US20070270393A1, “Methods and compositions for modulation of sleep cycle” (priority 2006, published 2007)
Where “and” joins values, the source holds several entries; their conditions need not be identical. Identical values can stand only once.

What was measured:
[1] = target: T1, glucocorticoid (GR) receptors (Homo sapiens, UniProt P04150); conditions: literature; cited from earlier work
T1 sequence (P04150 1-777): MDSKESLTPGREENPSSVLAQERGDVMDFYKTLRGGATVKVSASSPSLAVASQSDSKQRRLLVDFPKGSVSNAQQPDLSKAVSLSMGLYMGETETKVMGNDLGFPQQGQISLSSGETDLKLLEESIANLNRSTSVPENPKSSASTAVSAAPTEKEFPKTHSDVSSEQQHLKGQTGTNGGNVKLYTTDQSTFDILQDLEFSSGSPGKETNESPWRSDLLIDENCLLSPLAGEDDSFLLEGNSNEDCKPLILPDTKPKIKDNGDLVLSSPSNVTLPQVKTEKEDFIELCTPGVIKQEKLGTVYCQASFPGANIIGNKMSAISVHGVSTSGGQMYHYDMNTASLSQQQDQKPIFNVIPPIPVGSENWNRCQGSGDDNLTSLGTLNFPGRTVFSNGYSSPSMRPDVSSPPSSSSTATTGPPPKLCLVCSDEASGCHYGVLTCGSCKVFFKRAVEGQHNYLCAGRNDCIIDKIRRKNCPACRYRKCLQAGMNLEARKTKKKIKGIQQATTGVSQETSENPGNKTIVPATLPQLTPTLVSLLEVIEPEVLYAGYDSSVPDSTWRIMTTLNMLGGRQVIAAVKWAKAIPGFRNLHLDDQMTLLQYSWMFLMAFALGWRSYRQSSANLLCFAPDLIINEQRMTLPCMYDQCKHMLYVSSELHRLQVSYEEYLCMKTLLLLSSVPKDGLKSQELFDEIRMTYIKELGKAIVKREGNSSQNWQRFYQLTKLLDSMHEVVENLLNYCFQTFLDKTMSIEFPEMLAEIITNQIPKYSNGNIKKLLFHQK

MR and GR = conditions: Reul and de Kloet 1985; cited from earlier work
[2] = test system: nocturnal HPA axis activity in healthy controls; assay: Two day repeated measures study of fludrocortisone's acute effects on nocturnal HPA axis activity; assay type: in vivo, human
Description: Nine healthy subjects were recruited from the community via flyers and internet postings. Subjects responding to ads were phone screened to determine if subjects met initial eligibility criteria. Those subjects meeting criteria underwent physical examination, screening labs (complete blood count, comprehensive metabolic panel, urine analysis, urine toxicology screen, TSH, FT4, serum pregnancy test) and EKG. A SCID was performed to rule out Axis I and Axis II DSM-TR pathology. At the time of this analysis and manuscript preparation, 9 subjects have been enrolled. Inclusion criteria were: (1) participants are age 18 to 85 years old with a HAM-D score less than or equal to 5. Exclusion criteria were: (1) personal history of Axis I or Axis II disorders; (2) active medical problems; (3) abuse of drugs or alcohol in the 6 months prior to study; (4) use of additional prescription medications, street drugs or alcohol during the week before the study; (5) currently pregnant or lactating.
This study is a two day repeated measures study of fludrocortisone's acute effects on nocturnal HPA axis activity in healthy controls. Blood samples were taken every 30 minutes, beginning at 1600 to 2400 on Days 1. At 1400 on Day 2, all subjects were given 0.5 mg of fludrocortisone. Blood was then resampled from 1600 to 2400 on Day 2 to assess nocturnal changes in HPA axis activity. Blood sampling was timed in the first half of the night to coincide with the time period of greatest activity of MR.
Group averages, standard deviation and effect sizes are reported. The primary end-points were chosen to be mean cortisol and ACTH from 1600 to 2400 when greatest mineralocorticoid receptor activity is expected. To determine the differential effects of fludrocortisone, data from all subjects are pooled and the average values from 1600 to 2400 are computed. Next, mean values across this time interval are computed before (Time 1) and after (Time 2) fludrocortisone and the effect size for the difference between pooled mean values is computed.

[3] = 0.5 mg fludrocortisone, treatment vs baseline

CC#C[C@]1(O)CC[C@H]2[C@@H]3CCC4=CC(=O)CCC4=C3[C@@H](c3ccc(OCCN(C)C)cc3)C[C@@]21C [RU009, 11-beta-(4-dimethyl-aminoethoxyphenyl)-17-alpha-(propynyl-17beta-hydroxy-4,9-estradien-3-one)]
antagonist of glucocorticoid (GR) receptors [1]: GR antagonist effects

C[C@]12CCC(=O)C=C1CC[C@@H]1[C@@H]2[C@@H](O)C[C@@]2(C)[C@H]1CC[C@]2(O)C(=O)CO [cortisol]
affinity for MR relative to GR (MR and GR): greater affinity for MR than GR

C[C@]12CCC(=O)C=C1CC[C@H]1[C@@H]3CC[C@](O)(C(=O)CO)[C@@]3(C)C[C@H](O)[C@@]12F [fludrocortisone]
Mean ACTH (1600 to 2400), Difference (Tx − Baseline) ([2]; 0.5 mg fludrocortisone at 1400 on Day 2): 5.76 pg/mL
Mean Cortisol (1600 to 2400), Difference (Tx − Baseline) ([2]; 0.5 mg fludrocortisone at 1400 on Day 2, 9 healthy subjects): 2.19 µg/dL
Mean Cortisol/ACTH (1600 to 2400), Difference (Tx − Baseline) ([2]; 0.5 mg fludrocortisone, post-hoc analysis): 0.0686 and 0.07
Mean ACTH (1600 to 2400), Effect Size [2, 3]: 4.46
Mean Cortisol (1600 to 2400), Effect Size [2, 3]: 1.65
Mean Cortisol/ACTH (1600 to 2400), Effect Size [2, 3]: 0.92
Mean ACTH (1600 to 2400), AUC Treatment ([2]; after 0.5 mg fludrocortisone): 13.2 pm/ml
Mean Cortisol (1600 to 2400), AUC Treatment ([2]; after 0.5 mg fludrocortisone): 1.77 µg/dL
